Measured values reported in ChEMBL document CHEMBL5442219.

What was measured:
Details in all cases: Compound concentration 10 µM
[1] = biological target: T1, Alpha-1B adrenergic receptor (Homo sapiens) (UniProt P35368)
T1 sequence (whole entry): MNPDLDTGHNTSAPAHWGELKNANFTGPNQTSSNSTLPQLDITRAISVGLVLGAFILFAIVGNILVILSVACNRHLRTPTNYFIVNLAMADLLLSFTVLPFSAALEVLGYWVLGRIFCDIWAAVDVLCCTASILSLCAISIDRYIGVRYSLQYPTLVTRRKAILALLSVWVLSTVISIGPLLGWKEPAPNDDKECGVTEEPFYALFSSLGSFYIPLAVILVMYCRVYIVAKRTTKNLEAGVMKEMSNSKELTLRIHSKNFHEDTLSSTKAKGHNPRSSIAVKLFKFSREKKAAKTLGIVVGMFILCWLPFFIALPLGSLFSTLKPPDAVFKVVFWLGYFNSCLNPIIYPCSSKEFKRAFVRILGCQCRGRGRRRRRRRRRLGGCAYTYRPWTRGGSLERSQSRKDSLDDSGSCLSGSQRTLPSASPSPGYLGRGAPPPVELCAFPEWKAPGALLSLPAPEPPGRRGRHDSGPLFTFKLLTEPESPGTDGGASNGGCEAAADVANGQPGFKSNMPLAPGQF
Description: PDSP Primary Binding target: ADRA1B - Compounds are tested at 10 uM concentration, plate are incubated at room temperature in the dark for 90 minutes. Reaction are stopped by vacuum filtration onto 0.3% polyethyleneimine soaked filter mats using Filtermate harvester. Scintilation cocktail is then melted onto microwave-dried filters on a hot plate and the radio activity is counted in Microbia counter.

[2] = biological target: T2, Alpha-2C adrenergic receptor (Homo sapiens) (UniProt P18825)
T2 sequence (whole entry): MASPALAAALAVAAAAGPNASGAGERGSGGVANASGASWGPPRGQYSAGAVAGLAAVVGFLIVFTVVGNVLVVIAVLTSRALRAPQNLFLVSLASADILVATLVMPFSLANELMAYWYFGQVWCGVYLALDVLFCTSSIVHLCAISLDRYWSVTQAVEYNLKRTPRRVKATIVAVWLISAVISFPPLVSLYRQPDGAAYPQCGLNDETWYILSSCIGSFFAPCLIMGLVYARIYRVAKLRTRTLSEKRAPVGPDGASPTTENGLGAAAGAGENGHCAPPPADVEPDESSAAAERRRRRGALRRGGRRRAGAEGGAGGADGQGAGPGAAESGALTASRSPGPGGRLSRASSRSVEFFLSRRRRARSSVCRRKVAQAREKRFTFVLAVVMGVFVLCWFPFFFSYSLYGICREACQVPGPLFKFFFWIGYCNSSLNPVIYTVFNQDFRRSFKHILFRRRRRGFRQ
Description: PDSP Primary Binding target: ADRA2C - Compounds are tested at 10 uM concentration, plate are incubated at room temperature in the dark for 90 minutes. Reaction are stopped by vacuum filtration onto 0.3% polyethyleneimine soaked filter mats using Filtermate harvester. Scintilation cocktail is then melted onto microwave-dried filters on a hot plate and the radio activity is counted in Microbia counter.

[3] = biological target: Beta-1 adrenergic receptor (Homo sapiens) (UniProt P08588)
Description: PDSP Primary Binding target: ADRB1 - Compounds are tested at 10 uM concentration, plate are incubated at room temperature in the dark for 90 minutes. Reaction are stopped by vacuum filtration onto 0.3% polyethyleneimine soaked filter mats using Filtermate harvester. Scintilation cocktail is then melted onto microwave-dried filters on a hot plate and the radio activity is counted in Microbia counter.

[4] = biological target: Beta-2 adrenergic receptor (Homo sapiens) (UniProt P07550)
Description: PDSP Primary Binding target: ADRB2 - Compounds are tested at 10 uM concentration, plate are incubated at room temperature in the dark for 90 minutes. Reaction are stopped by vacuum filtration onto 0.3% polyethyleneimine soaked filter mats using Filtermate harvester. Scintilation cocktail is then melted onto microwave-dried filters on a hot plate and the radio activity is counted in Microbia counter.

[5] = biological target: T3, Muscarinic acetylcholine receptor M1 (Homo sapiens) (UniProt P11229)
T3 sequence (whole entry): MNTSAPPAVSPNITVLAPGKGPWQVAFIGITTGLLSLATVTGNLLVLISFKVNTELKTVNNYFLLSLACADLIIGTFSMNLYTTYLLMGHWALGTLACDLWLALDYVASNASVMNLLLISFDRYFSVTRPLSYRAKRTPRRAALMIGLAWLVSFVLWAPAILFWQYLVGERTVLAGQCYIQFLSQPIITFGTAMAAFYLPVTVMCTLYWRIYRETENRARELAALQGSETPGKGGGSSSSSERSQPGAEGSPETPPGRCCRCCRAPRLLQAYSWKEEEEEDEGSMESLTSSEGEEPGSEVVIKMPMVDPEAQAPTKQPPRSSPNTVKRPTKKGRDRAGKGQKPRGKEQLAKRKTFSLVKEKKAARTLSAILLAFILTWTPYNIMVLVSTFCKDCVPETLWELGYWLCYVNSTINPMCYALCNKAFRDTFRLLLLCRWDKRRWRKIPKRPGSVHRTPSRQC
Description: PDSP Primary Binding target: CHRM1 - Compounds are tested at 10 uM concentration, plate are incubated at room temperature in the dark for 90 minutes. Reaction are stopped by vacuum filtration onto 0.3% polyethyleneimine soaked filter mats using Filtermate harvester. Scintilation cocktail is then melted onto microwave-dried filters on a hot plate and the radio activity is counted in Microbia counter.

[6] = biological target: T4, Muscarinic acetylcholine receptor M4 (Homo sapiens) (UniProt P08173)
T4 sequence (whole entry): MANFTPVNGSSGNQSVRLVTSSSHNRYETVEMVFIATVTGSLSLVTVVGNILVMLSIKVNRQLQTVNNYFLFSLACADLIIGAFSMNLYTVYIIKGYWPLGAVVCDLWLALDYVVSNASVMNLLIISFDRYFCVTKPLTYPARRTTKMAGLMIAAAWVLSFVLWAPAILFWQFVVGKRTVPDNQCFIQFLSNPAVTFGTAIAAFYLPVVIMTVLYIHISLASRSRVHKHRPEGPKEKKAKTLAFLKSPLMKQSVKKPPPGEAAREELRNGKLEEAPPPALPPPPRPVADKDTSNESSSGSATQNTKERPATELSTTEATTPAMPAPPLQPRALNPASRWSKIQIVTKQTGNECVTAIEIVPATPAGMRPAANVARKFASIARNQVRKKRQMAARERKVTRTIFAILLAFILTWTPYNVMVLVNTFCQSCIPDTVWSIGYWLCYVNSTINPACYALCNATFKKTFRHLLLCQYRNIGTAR
Description: PDSP Primary Binding target: CHRM4 - Compounds are tested at 10 uM concentration, plate are incubated at room temperature in the dark for 90 minutes. Reaction are stopped by vacuum filtration onto 0.3% polyethyleneimine soaked filter mats using Filtermate harvester. Scintilation cocktail is then melted onto microwave-dried filters on a hot plate and the radio activity is counted in Microbia counter.

[7] = biological target: D(1A) dopamine receptor (Homo sapiens) (UniProt P21728)
Description: PDSP Primary Binding target: DRD1 - Compounds are tested at 10 uM concentration, plate are incubated at room temperature in the dark for 90 minutes. Reaction are stopped by vacuum filtration onto 0.3% polyethyleneimine soaked filter mats using Filtermate harvester. Scintilation cocktail is then melted onto microwave-dried filters on a hot plate and the radio activity is counted in Microbia counter.

[8] = biological target: D(1B) dopamine receptor (Homo sapiens) (UniProt P21918)
Description: PDSP Primary Binding target: DRD5 - Compounds are tested at 10 uM concentration, plate are incubated at room temperature in the dark for 90 minutes. Reaction are stopped by vacuum filtration onto 0.3% polyethyleneimine soaked filter mats using Filtermate harvester. Scintilation cocktail is then melted onto microwave-dried filters on a hot plate and the radio activity is counted in Microbia counter.

[9] = biological target: 5-hydroxytryptamine receptor 1D (Homo sapiens) (UniProt P28221)
Description: PDSP Primary Binding target: HTR1D - Compounds are tested at 10 uM concentration, plate are incubated at room temperature in the dark for 90 minutes. Reaction are stopped by vacuum filtration onto 0.3% polyethyleneimine soaked filter mats using Filtermate harvester. Scintilation cocktail is then melted onto microwave-dried filters on a hot plate and the radio activity is counted in Microbia counter.

[10] = biological target: 5-hydroxytryptamine receptor 2A (Homo sapiens) (UniProt P28223)
Description: PDSP Primary Binding target: HTR2A - Compounds are tested at 10 uM concentration, plate are incubated at room temperature in the dark for 90 minutes. Reaction are stopped by vacuum filtration onto 0.3% polyethyleneimine soaked filter mats using Filtermate harvester. Scintilation cocktail is then melted onto microwave-dried filters on a hot plate and the radio activity is counted in Microbia counter.

[11] = biological target: 5-hydroxytryptamine receptor 6 (Homo sapiens) (UniProt P50406)
Description: PDSP Primary Binding target: HTR6 - Compounds are tested at 10 uM concentration, plate are incubated at room temperature in the dark for 90 minutes. Reaction are stopped by vacuum filtration onto 0.3% polyethyleneimine soaked filter mats using Filtermate harvester. Scintilation cocktail is then melted onto microwave-dried filters on a hot plate and the radio activity is counted in Microbia counter.

[12] = biological target: 5-hydroxytryptamine receptor 7 (Homo sapiens) (UniProt P34969)
Description: PDSP Primary Binding target: HTR7 - Compounds are tested at 10 uM concentration, plate are incubated at room temperature in the dark for 90 minutes. Reaction are stopped by vacuum filtration onto 0.3% polyethyleneimine soaked filter mats using Filtermate harvester. Scintilation cocktail is then melted onto microwave-dried filters on a hot plate and the radio activity is counted in Microbia counter.

[13] = biological target: Delta-type opioid receptor (Homo sapiens) (UniProt P41143)
Description: PDSP Primary Binding target: OPRD1 - Compounds are tested at 10 uM concentration, plate are incubated at room temperature in the dark for 90 minutes. Reaction are stopped by vacuum filtration onto 0.3% polyethyleneimine soaked filter mats using Filtermate harvester. Scintilation cocktail is then melted onto microwave-dried filters on a hot plate and the radio activity is counted in Microbia counter.

[14] = biological target: Mu-type opioid receptor (Homo sapiens) (UniProt P35372)
Description: PDSP Primary Binding target: OPRM1 - Compounds are tested at 10 uM concentration, plate are incubated at room temperature in the dark for 90 minutes. Reaction are stopped by vacuum filtration onto 0.3% polyethyleneimine soaked filter mats using Filtermate harvester. Scintilation cocktail is then melted onto microwave-dried filters on a hot plate and the radio activity is counted in Microbia counter.

[15] = biological target: Sodium-dependent noradrenaline transporter (Homo sapiens) (UniProt P23975)
Description: PDSP Primary Binding target: SLC6A2 - Compounds are tested at 10 uM concentration, plate are incubated at room temperature in the dark for 90 minutes. Reaction are stopped by vacuum filtration onto 0.3% polyethyleneimine soaked filter mats using Filtermate harvester. Scintilation cocktail is then melted onto microwave-dried filters on a hot plate and the radio activity is counted in Microbia counter.

[16] = biological target: Sodium-dependent dopamine transporter (Homo sapiens) (UniProt Q01959)
Description: PDSP Primary Binding target: SLC6A3 - Compounds are tested at 10 uM concentration, plate are incubated at room temperature in the dark for 90 minutes. Reaction are stopped by vacuum filtration onto 0.3% polyethyleneimine soaked filter mats using Filtermate harvester. Scintilation cocktail is then melted onto microwave-dried filters on a hot plate and the radio activity is counted in Microbia counter.

[17] = biological target: Sigma intracellular receptor 2 (Homo sapiens) (UniProt Q5BJF2)
Description: PDSP Primary Binding target: TMEM97 - Compounds are tested at 10 uM concentration, plate are incubated at room temperature in the dark for 90 minutes. Reaction are stopped by vacuum filtration onto 0.3% polyethyleneimine soaked filter mats using Filtermate harvester. Scintilation cocktail is then melted onto microwave-dried filters on a hot plate and the radio activity is counted in Microbia counter.

[18] = biological target: Beta-3 adrenergic receptor (Homo sapiens) (UniProt P13945)
Description: PDSP Primary Binding target: ADRB3 - Compounds are tested at 10 uM concentration, plate are incubated at room temperature in the dark for 90 minutes. Reaction are stopped by vacuum filtration onto 0.3% polyethyleneimine soaked filter mats using Filtermate harvester. Scintilation cocktail is then melted onto microwave-dried filters on a hot plate and the radio activity is counted in Microbia counter.

[19] = biological target: Histamine H2 receptor (Homo sapiens) (UniProt P25021)
Description: PDSP Primary Binding target: HRH2 - Compounds are tested at 10 uM concentration, plate are incubated at room temperature in the dark for 90 minutes. Reaction are stopped by vacuum filtration onto 0.3% polyethyleneimine soaked filter mats using Filtermate harvester. Scintilation cocktail is then melted onto microwave-dried filters on a hot plate and the radio activity is counted in Microbia counter.

Chain of D(1A) dopamine receptor (Homo sapiens) (P21728 whole entry): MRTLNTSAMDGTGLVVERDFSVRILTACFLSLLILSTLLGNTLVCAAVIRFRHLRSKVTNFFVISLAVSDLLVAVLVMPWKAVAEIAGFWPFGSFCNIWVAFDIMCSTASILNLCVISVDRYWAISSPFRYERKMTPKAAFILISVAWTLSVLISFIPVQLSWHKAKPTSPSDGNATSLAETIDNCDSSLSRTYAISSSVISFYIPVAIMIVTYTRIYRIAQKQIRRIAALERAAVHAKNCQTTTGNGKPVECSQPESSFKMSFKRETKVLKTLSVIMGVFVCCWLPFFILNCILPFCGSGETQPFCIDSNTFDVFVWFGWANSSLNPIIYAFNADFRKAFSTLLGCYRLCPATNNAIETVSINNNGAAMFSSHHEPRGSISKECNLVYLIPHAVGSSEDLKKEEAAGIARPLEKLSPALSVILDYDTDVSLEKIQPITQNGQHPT
Chain of 5-hydroxytryptamine receptor 2A (Homo sapiens) (P28223 whole entry): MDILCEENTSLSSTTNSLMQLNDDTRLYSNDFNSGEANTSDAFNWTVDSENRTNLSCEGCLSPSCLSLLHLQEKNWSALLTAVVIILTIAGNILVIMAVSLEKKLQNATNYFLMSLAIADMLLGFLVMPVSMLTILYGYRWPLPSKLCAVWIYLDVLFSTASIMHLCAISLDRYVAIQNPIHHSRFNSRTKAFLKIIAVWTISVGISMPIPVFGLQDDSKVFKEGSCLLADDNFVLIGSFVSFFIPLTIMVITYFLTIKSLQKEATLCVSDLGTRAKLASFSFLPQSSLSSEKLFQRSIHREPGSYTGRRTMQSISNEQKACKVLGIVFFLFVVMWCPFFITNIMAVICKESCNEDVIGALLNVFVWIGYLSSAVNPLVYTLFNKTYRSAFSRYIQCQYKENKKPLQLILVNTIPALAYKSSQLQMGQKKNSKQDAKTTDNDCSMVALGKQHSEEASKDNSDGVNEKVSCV
Chain of Beta-2 adrenergic receptor (Homo sapiens) (P07550 whole entry, looked up): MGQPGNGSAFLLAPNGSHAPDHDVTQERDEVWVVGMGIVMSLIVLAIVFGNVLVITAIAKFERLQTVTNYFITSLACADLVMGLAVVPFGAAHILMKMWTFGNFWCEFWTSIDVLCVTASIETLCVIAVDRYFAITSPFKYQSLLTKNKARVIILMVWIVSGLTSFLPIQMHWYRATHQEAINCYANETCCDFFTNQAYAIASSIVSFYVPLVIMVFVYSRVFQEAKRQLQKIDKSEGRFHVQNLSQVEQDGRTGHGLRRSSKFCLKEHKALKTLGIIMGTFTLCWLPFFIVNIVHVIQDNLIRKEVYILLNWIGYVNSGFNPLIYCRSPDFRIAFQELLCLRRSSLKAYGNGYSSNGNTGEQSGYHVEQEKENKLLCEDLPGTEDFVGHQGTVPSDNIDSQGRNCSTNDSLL
Chain of Sodium-dependent dopamine transporter (Homo sapiens) (Q01959 whole entry): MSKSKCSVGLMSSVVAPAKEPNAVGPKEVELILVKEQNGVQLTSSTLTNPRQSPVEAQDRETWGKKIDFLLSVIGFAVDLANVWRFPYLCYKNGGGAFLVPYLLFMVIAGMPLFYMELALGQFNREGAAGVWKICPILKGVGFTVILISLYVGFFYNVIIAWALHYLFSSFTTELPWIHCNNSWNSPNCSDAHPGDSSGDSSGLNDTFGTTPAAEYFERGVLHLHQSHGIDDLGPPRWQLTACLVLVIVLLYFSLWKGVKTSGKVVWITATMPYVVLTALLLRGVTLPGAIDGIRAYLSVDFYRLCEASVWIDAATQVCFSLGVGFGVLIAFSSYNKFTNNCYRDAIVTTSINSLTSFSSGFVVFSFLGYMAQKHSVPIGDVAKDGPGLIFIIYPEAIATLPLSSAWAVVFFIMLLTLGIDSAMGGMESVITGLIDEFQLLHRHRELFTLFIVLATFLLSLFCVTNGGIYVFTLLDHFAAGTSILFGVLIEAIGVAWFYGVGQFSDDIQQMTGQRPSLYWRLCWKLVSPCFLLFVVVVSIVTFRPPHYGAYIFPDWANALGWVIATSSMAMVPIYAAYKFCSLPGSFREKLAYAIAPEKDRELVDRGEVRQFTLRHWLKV
Chain of Beta-1 adrenergic receptor (Homo sapiens) (P08588 whole entry, looked up): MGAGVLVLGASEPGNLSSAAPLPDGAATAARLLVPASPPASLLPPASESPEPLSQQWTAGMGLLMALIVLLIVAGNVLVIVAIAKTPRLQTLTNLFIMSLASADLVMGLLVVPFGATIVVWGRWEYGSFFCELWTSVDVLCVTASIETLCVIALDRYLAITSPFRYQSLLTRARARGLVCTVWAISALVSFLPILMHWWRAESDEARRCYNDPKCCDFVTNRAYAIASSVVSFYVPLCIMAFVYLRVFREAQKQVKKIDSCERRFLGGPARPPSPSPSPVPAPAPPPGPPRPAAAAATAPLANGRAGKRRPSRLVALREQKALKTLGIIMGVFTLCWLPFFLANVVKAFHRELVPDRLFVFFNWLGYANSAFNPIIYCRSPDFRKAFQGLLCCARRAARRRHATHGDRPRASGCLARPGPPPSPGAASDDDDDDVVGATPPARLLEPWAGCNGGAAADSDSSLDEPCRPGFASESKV
Chain of 5-hydroxytryptamine receptor 1D (Homo sapiens) (P28221 whole entry): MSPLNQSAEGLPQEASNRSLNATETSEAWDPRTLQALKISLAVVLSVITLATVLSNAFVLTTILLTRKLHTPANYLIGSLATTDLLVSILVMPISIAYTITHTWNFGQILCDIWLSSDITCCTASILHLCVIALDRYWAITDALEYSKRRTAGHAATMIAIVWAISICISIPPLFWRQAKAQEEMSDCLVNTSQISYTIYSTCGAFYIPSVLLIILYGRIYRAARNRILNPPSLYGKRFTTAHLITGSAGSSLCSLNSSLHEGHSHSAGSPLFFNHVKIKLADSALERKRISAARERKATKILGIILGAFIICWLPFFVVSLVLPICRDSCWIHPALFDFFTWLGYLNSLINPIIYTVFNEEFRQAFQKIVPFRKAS
Chain of 5-hydroxytryptamine receptor 7 (Homo sapiens) (P34969 whole entry): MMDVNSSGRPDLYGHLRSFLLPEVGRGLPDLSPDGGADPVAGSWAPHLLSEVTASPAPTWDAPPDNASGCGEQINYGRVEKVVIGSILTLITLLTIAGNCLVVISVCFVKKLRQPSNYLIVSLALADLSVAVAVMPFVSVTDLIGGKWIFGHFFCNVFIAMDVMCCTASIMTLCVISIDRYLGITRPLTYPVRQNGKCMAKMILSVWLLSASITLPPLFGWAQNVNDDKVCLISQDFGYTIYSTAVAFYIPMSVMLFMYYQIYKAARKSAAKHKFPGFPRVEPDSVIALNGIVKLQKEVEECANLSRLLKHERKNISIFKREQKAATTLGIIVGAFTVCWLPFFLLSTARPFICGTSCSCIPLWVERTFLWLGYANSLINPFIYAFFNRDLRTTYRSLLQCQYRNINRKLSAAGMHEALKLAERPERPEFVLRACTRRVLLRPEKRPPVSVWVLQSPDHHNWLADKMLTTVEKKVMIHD
Chain of Mu-type opioid receptor (Homo sapiens) (P35372 whole entry): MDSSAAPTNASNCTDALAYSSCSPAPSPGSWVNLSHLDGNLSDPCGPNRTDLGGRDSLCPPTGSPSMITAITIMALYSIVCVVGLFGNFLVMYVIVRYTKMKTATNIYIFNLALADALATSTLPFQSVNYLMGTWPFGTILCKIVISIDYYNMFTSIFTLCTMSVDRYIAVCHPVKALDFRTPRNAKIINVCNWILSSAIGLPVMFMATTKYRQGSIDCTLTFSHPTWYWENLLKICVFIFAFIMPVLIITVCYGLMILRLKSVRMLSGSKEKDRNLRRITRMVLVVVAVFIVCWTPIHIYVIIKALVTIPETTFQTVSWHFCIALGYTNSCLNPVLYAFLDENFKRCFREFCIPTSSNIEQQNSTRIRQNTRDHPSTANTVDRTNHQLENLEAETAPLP
Chain of Beta-3 adrenergic receptor (Homo sapiens) (P13945 whole entry, looked up): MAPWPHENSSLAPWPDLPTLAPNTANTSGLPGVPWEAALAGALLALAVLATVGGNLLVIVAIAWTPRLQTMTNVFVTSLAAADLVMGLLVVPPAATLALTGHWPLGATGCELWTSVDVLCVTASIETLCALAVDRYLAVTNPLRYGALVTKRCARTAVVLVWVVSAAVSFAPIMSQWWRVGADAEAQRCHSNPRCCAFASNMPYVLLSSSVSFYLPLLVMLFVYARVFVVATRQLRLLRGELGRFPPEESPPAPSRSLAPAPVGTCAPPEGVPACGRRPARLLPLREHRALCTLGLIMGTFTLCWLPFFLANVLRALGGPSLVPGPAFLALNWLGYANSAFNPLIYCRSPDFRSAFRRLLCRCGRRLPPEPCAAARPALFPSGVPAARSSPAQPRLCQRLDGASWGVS
Chain of Delta-type opioid receptor (Homo sapiens) (P41143 whole entry): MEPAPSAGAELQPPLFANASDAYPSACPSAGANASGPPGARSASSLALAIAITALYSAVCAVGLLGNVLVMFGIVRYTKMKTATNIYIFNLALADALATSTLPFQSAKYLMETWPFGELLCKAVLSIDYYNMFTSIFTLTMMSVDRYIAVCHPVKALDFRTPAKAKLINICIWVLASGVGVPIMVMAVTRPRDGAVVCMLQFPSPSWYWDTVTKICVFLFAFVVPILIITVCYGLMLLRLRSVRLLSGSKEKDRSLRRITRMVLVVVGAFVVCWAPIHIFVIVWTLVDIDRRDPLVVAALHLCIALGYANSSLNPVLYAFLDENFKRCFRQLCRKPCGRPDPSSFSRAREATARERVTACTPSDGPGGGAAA
Chain of D(1B) dopamine receptor (Homo sapiens) (P21918 whole entry): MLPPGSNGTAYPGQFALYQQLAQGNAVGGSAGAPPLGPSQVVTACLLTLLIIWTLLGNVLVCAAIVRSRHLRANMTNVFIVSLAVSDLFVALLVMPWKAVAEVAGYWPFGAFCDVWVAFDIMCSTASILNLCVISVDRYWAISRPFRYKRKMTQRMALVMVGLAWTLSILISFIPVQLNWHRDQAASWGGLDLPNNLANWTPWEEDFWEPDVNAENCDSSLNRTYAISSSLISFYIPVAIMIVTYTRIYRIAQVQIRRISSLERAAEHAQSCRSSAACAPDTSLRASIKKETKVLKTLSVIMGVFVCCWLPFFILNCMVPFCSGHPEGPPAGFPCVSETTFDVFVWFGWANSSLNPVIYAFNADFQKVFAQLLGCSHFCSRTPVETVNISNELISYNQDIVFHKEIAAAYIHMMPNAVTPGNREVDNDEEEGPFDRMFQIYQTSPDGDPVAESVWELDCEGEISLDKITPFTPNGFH

SMILES: COc1cccc([C@@H](C)NCCCc2ccccc2Cl)c1
- inhibition [1]: 15.5%
- inhibition [2]: 79.9%
- inhibition [3]: 15.9%
- inhibition [4]: -2.01%
- inhibition [5]: -0.51%
- inhibition [6]: 27.2%
- inhibition [7]: 12.6%
- inhibition [8]: 8.31%
- inhibition [9]: 33.7%
- inhibition [10]: 91.1%
- inhibition [11]: 84.3%
- inhibition [12]: 48.8%
- inhibition [13]: 11.8%
- inhibition [14]: 57.2%
- inhibition [15]: 64.6%
- inhibition [16]: 31.1%
- inhibition [17]: 96.3%
- inhibition [18]: 50.2%
- inhibition [19]: 72.6%

SMILES: CCc1ccc(OCc2ccccc2C(=O)Nc2ccc3nc(C)cc(N)c3c2)cc1
- inhibition [1]: 60.5%
- inhibition [2]: 40.9%
- inhibition [3]: 3.07%
- inhibition [4]: 8.05%
- inhibition [5]: 74.4%
- inhibition [6]: 65.2%
- inhibition [7]: 47.8%
- inhibition [8]: 39.1%
- inhibition [9]: 59.3%
- inhibition [10]: 83.4%
- inhibition [11]: 46.5%
- inhibition [12]: 46.5%
- inhibition [13]: -2.98%
- inhibition [14]: 81.7%
- inhibition [15]: 87.4%
- inhibition [16]: 68.4%
- inhibition [17]: 91.7%
- inhibition [18]: 68.6%
- inhibition [19]: 46.7%

SMILES: COc1ccc(NS(=O)(=O)c2sc3ccc(Cl)cc3c2C)cc1N1CCNCC1
- inhibition [1]: 65.1%
- inhibition [2]: 35.2%
- inhibition [3]: 50.6%
- inhibition [4]: 32.3%
- inhibition [5]: -7.39%
- inhibition [6]: 5.58%
- inhibition [7]: 16.9%
- inhibition [8]: 22.4%
- inhibition [9]: 66.8%
- inhibition [10]: 37.4%
- inhibition [11]: 87.3%
- inhibition [12]: 38.3%
- inhibition [13]: 29.8%
- inhibition [14]: 56.3%
- inhibition [15]: 61.7%
- inhibition [16]: 63.1%
- inhibition [17]: 81.8%
- inhibition [18]: 56.5%
- inhibition [19]: 13.5%

SMILES: CN1C2CCC1CC(OC(c1ccc(F)cc1)c1ccc(F)cc1)C2 (stereo not drawn)
- inhibition [1]: 96.5%
- inhibition [3]: 33%
- inhibition [4]: -6.19%
- inhibition [5]: 94.5%
- inhibition [6]: 95.6%
- inhibition [7]: 83%
- inhibition [8]: 66.6%
- inhibition [9]: 74%
- inhibition [10]: 99.6%
- inhibition [11]: 96.1%
- inhibition [12]: 92.4%
- inhibition [14]: 59.1%
- inhibition [15]: 102%
- inhibition [16]: 96.9%
- inhibition [17]: 100%
- inhibition [18]: 36%
- inhibition [19]: 86.9%

SMILES: Clc1cccc(COc2cncc(N3CCNCC3)n2)c1
- inhibition [1]: 26.2%
- inhibition [2]: 36.9%
- inhibition [3]: 50.8%
- inhibition [4]: 32.6%
- inhibition [5]: 82%
- inhibition [6]: 85.7%
- inhibition [7]: 29.3%
- inhibition [8]: 11.8%
- inhibition [9]: 89.1%
- inhibition [10]: 99%
- inhibition [11]: 97.9%
- inhibition [12]: 87.1%
- inhibition [13]: -4.82%
- inhibition [14]: 0.78%
- inhibition [15]: 20.2%
- inhibition [16]: 33.5%
- inhibition [17]: 86.4%
- inhibition [18]: 28.7%
- inhibition [19]: 14.4%
